In publication PMC7321065, “Discovery of New Schiff Bases Tethered Pyrazole Moiety: Design, Synthesis, Biological Evaluation, and Molecular Docking Study as Dual Targeting DHFR/DNA Gyrase Inhibitors with Immunomodulatory Activity” (Molecules, 2020):
Converted amounts (≈) assume the structure as drawn. Read-outs that look alike come from different tables or passages of the source.

Key:
[1] = test system: S. aureus ATCC 43300 (MRSA); experiment: Inhibition zone against MDRB, agar plate diffusion; type: cell-based
Candida albicans [2] = experiment: Inhibition zone, agar plate diffusion; type: cell-based; conditions: read-out: Inhibition zone (IZ)
Method: (§1) Antimicrobial activities of the newly formed Schiff bases (6a–d, 7a–d, 8a–d, and 9a–d) and reference drugs were evaluated against three Gram-positive, three Gram-negative, and two fungi strain at Al-Azhar University, Cairo, Egypt. The inhibition zones (IZ, in mm ± standard deviation) and the minimal inhibitory concentration (MIC) (μg/mL) were determined by the conventional paper disk diffusion method.
(§2) In Vitro Antimicrobial Activities
(§3) The antimicrobial activities inhibition zone (IZ, mm±standard deviation) of pyrazole Schiff bases ( 6a-d , 7a-d, 8a-d and 9a-d ) was measurement according to the agar plate diffusion method. Briefly, 100 µl of the […]
(§4) […] of each sample (at 0.5 mg/mL) was added to each well (10 mm diameter holes cut in the agar gel). The plates were incubated for 24 h at 37 °C (for bacteria and yeast) and for 72 h at 27 °C (for filamentous fungi), each test was repeated three times. After incubation, the microorganism's growth was observed. […]
(§5) drugs while Amphotericin B was used as standard antifungal drug. The resulting inhibition zone diameters were measured in millimeters and used as criterion for the antimicrobial activity. Solvent controls (DMSO) were included in every experiment as negative controls. DMSO was used for dissolving […]
(§6) the tested microorganisms. […]
(§7) Bacteria were grown on nutrient agar medium, while fungi and yeast were grown on Sabouraud agar medium. […]

Fusarium oxysporum [3] = experiment: Inhibition zone, agar plate diffusion; type: cell-based; conditions: read-out: Inhibition zone (IZ)
Method: as §1, §2, §3, §4, §5, §6, §7

Staphylococcus aureus [4] = experiment: Inhibition zone, agar plate diffusion; type: cell-based; conditions: read-out: Inhibition zone (IZ)
Method: as §1, §2, §3, §4, §5, §6, §7

Salmonella typhi [5] = experiment: Inhibition zone, agar plate diffusion; type: cell-based; conditions: Salmonella enterica, St, mm ± standard deviation, sample at 0.5 mg/mL, read-out: Inhibition zone (IZ)
Method: as §1, §2, §3, §4, §5, §6, §7

S. aureus ATCC 33591 [6] = experiment: MIC/MBC against MDRB, paper disk diffusion; type: cell-based; conditions: Staphylococcus aureus, ATCC33591
Source text: (§8) The inhibition zone (IZ, mm±standard deviation) of pyrazole Schiff bases ( 6b, 7b, 7c, 8a, 8d and 9b) was
(§9) measurement according to the agar plate diffusion method against a panel of multidrug-resistant bacteria
(MDRB). […]

E. coli ATCC BAA-196 [7] = experiment: MIC/MBC against MDRB, paper disk diffusion; type: cell-based; conditions: Escherichia coli, ATCCBAA196
Source text: as §8, §9
(MDRB). […]

[8] = test system: S. aureus ATCC 43300 (MRSA); experiment: MIC/MBC against MDRB, paper disk diffusion; type: cell-based; conditions: Staphylococcus aureus
Source text: as §8, §9
(MDRB). […]

[9] = test system: P. aeruginosa ATCC BAA-2111; experiment: MIC/MBC against MDRB, paper disk diffusion; type: cell-based; conditions: Pseudomonas aeruginosa, ATCCBAA2111
Source text: as §8, §9
(MDRB). […]

[10] = test system: hepatocellular carcinoma cell line (HepG2); experiment: Antiproliferative activity, MTT assay; type: cell-based, human; conditions: Homo sapiens, HepG2, 48 h, read-out: IC50 HepG-2
Method: (§10) 3-[4, 5-Dimethyl-2-thiazolyl)-2, 5-diphenyl-2 H-tetrazolium bromide (MTT) protocol is based on the cleavage of the tetrazolium salt by mitochondrial dehydrogenases in viable cells. Cells were dispensed in a 96 well sterile microplate (5 x 10^4 cells/well), and incubated at 37 °C with series of different concentrations, in DMSO, of each tested compound or Doxorubicin ® (positive control) for 48 h in a serum free medium prior to the MTT assay. After incubation, media were carefully removed, 40 µL of MTT (2.5 mg/mL) were added to each well and then incubated for an additional 4 h. The purple formazan dye crystals were solubilized by the addition of 200 µL of DMSO. The absorbance was measured at 590 nm using a SpectraMax® Paradigm® Multi-Mode microplate reader. The relative cell viability was expressed as the mean percentage of viable cells compared to the untreated control cells.
(§11) All experiments were conducted in triplicate and repeated in three different days. All the values were represented as mean ± SD. IC 50s were determined by probit analysis using SPSS software program (SPSS

[11] = test system: mammary gland breast cancer cell line (MCF-7); experiment: Antiproliferative activity, MTT assay; type: cell-based, human; conditions: Homo sapiens, MCF7, 48 h, read-out: IC50 MCF-7
Method: as §10, §11

[12] = test system: P. aeruginosa ATCC BAA-2111; experiment: Inhibition zone against MDRB, agar plate diffusion; type: cell-based
Bacillus subtilis [13] = experiment: MIC/MBC, paper disk diffusion; type: cell-based
Method: as §1
(§12) In Vitro Antimicrobial Activities […]
(§13) DMSO was used for dissolving […]
(§14) the tested microorganisms.
(§15) The minimum inhibitory concentration (MIC), the minimum bactericidal concentration (MBC, µg/ml) and […]
(§16) and 9b) were determined by the conventional technique termed paper disk diffusion, by applying paper […]
(§17) Bacteria were grown on nutrient agar medium, while fungi and yeast were grown on Sabouraud agar medium. The purified streptomycin was dissolved in […]
(§18) inoculated with test organism. Growth inhibition was examined after 24 hr. from incubation at 37 °C for bacteria and after 72 hr. incubation at 27 °C for fungi and yeast. Each test was repeated three times. MIC was expressed as the lowest concentration inhibiting test organism’s growth. […]

Escherichia coli [14] = experiment: MIC/MBC, paper disk diffusion; type: cell-based; conditions: Escherichia coli
Method: as §1, §12, §13, §14, §15, §16, §17, §18

Enterococcus faecalis [15] = experiment: MIC/MBC, paper disk diffusion; type: cell-based
Method: as §1, §12, §13, §14, §15, §16, §17, §18

Staphylococcus aureus [16] = experiment: MIC/MBC, paper disk diffusion; type: cell-based; conditions: Staphylococcus aureus
Method: as §1, §12, §13, §14, §15, §16, §17, §18

Pseudomonas aeruginosa [17] = experiment: MIC/MBC, paper disk diffusion; type: cell-based; conditions: for MBC: P. aeruginosa
Method: as §1, §12, §13, §14, §15, §16, §17, §18

Salmonella typhi [18] = experiment: MIC/MBC, paper disk diffusion; type: cell-based; conditions: Salmonella enterica, S. typhi
Method: as §1, §12, §13, §14, §15, §16, §17, §18

E. coli ATCC BAA-196 [19] = experiment: Inhibition zone against MDRB, agar plate diffusion; type: cell-based
S. aureus ATCC 33591 [20] = experiment: Inhibition zone against MDRB, agar plate diffusion; type: cell-based
Candida albicans [21] = experiment: MIC/MFC, paper disk diffusion; type: cell-based; conditions: Candida albicans
Method: as §1, §12, §13, §14, §15, §16, §17, §18

Fusarium oxysporum [22] = experiment: MIC/MFC, paper disk diffusion; type: cell-based; conditions: Fusarium oxysporum
Method: as §1, §12, §13, §14, §15, §16, §17, §18

Vero cells (ATCC CCL-81) = experiment: Cytotoxicity on normal cells, MTT assay; type: cell-based, African green monkey; conditions: healthy non-cancer cells
Method: as §10, §11

Bacillus subtilis [23] = experiment: Inhibition zone, agar plate diffusion; type: cell-based; conditions: read-out: Inhibition zone (IZ)
Method: as §1, §2, §3, §4, §5, §6

Escherichia coli [24] = experiment: Inhibition zone, agar plate diffusion; type: cell-based; conditions: read-out: Inhibition zone (IZ)
Method: as §1, §2, §3, §4, §5, §6

Enterococcus faecalis [25] = experiment: Inhibition zone, agar plate diffusion; type: cell-based; conditions: read-out: Inhibition zone (IZ)
Method: as §1, §2, §3, §4, §5, §6

Pseudomonas aeruginosa [26] = experiment: Inhibition zone, agar plate diffusion; type: cell-based; conditions: read-out: Inhibition zone (IZ)
Method: as §1, §2, §3, §4, §5, §6

COc1ccc(Nc2n[nH]c(N=Cc3c(C)nn(-c4ccccc4)c3Cl)c2C(=O)Nc2ccc(C)cc2)cc1 [7c, 5-((5-Chloro-3-methyl-1-phenyl-1H-pyrazol-4-yl)methyleneamino)-3-(p-methoxyphenylamino)-N-p-tolyl-1H-pyrazole-4-carboxamide] was tested, and the “Mean Diameter of Inhibition Zone against MDRB” value [1] was 17 ± 0.37 mm, the zone of inhibition at 500 µg/mL (Candida albicans [2]) was 27 ± 0.5 mm and the zone of inhibition at 500 µg/mL (Fusarium oxysporum [3]) was 22 ± 0.11 mm. The zone of inhibition at 500 µg/mL (Staphylococcus aureus [4]) was 33 ± 0.53 mm, the zone of inhibition at 500 µg/mL (Salmonella typhi [5]) was 29 ± 0.2 mm and the MBC (S. aureus ATCC 33591 [6]) was 11.1 µg/mL (≈ 20.6 µM). The MIC (S. aureus ATCC 33591 [6]) was 5.55 µg/mL (≈ 10.3 µM), the MBC (E. coli ATCC BAA-196 [7]) was 14.8 µg/mL (≈ 27.5 µM) and the MIC (E. coli ATCC BAA-196 [7]) was 7.81 µg/mL (≈ 14.5 µM). It also gave an MBC [8] of 14.8 µg/mL (≈ 27.5 µM), an MIC [8] of 7.81 µg/mL (≈ 14.5 µM) and an MBC [9] of 6.66 µg/mL (≈ 12.3 µM). The MIC [9] was 4.44 µg/mL (≈ 8.22 µM), the IC50 [10] was 1.22 ± 0.23 µM and the IC50 [11] was 3.24 ± 0.41 µM. The “Mean Diameter of Inhibition Zone against MDRB” value [12] was 22 ± 0.5 mm, the “Fold more potent than Tetracycline (MIC)” value (Bacillus subtilis [13]; B. subtilis) was 3 fold and the MBC (Bacillus subtilis [13]; B. subtilis) was 18.5 µg/mL (≈ 34.3 µM). It also gave an MIC (Bacillus subtilis [13]; Bacillus subtilis) of 9.25 µg/mL (≈ 17.1 µM), an MBC (Bacillus subtilis [13]; Bacillus subtilis, B. subtilis) of 10.6 µg/mL (≈ 19.6 µM) and an MIC (Escherichia coli [14]) of 18.5 µg/mL (≈ 34.3 µM). It also gave an MIC (Enterococcus faecalis [15]) of 7.81 µg/mL (≈ 14.5 µM), an MIC (Staphylococcus aureus [16]) of 31.2 µg/mL (≈ 57.9 µM) and an MBC (Pseudomonas aeruginosa [17]) of 88.8 µg/mL (≈ 164 µM). For the same compound, the MIC (Pseudomonas aeruginosa [17]; Pseudomonas aeruginosa) was 55.5 µg/mL (≈ 103 µM), the MBC (Pseudomonas aeruginosa [17]; Pseudomonas aeruginosa) was 59.4 µg/mL (≈ 110 µM) and the MIC (Salmonella typhi [18]) was 31.2 µg/mL (≈ 57.9 µM). For the same compound, the MBC (Salmonella typhi [18]; read-out: MBC) was 56.2 µg/mL (≈ 104 µM), the “Mean Diameter of Inhibition Zone against MDRB” value (E. coli ATCC BAA-196 [19]) was 21 ± 0.3 mm and the “Mean Diameter of Inhibition Zone against MDRB” value (S. aureus ATCC 33591 [20]) was 21 ± 0.19 mm. For the same compound, the MFC (Candida albicans [21]) was 41.6 µg/mL (≈ 77.1 µM), the MIC (Candida albicans [21]) was 31.2 µg/mL (≈ 57.9 µM) and the MFC (Fusarium oxysporum [22]) was 87.5 µg/mL (≈ 162 µM). For the same compound, the MIC (Fusarium oxysporum [22]) was 55.5 µg/mL (≈ 103 µM), the IC50 (Vero cells (ATCC CCL-81); Chlorocebus sabaeus, Vero, read-out: IC50 Vero, MTT) was > 120 µM and the IC50 (Vero cells (ATCC CCL-81); read-out: IC50 Vero, MTT) was 213.5 ± 0.57 µM. The zone of inhibition at 500 µg/mL (Bacillus subtilis [23]) was 32 ± 0.22 mm, the zone of inhibition at 500 µg/mL (Escherichia coli [24]) was 30 ± 0.29 mm and the zone of inhibition at 500 µg/mL (Enterococcus faecalis [25]) was 29 ± 0.17 mm. It also gave a zone of inhibition at 500 µg/mL (Pseudomonas aeruginosa [26]) of 27 ± 0.73 mm.
